Reference: ChEMBL document CHEMBL4765299 (Eur J Med Chem, 2020)
Active and inactive are the calls of the source. The calls are words filed in the database; no cut-off is given here.

Tests used:
[1] = against A against n against t against i against p against r against o against l against i against f against e against r against a against t against i against v against e against a against c against t against i against v against i against t against y against a against g against a against i against n against s against t against h against u against m against a against n against M against D against A against - against M against B against - against 2 against 3 against 1 against c against e against l against l against s against a against s against s against e against s against s against e against d against a against s against r against e against d against u against c against t against i against o against n against i against n against c against e against l against l against v against i against a against b against i against l against i against t against y against m against e against a against s against u against r against e against d against a against f against t against e against r against 7 against 2 against h against r against s against b against y against M against T against T against a against s against s against a against y against; format: functional, tissue-based, Homo sapiens; details: mda-mb-231
[2] = tested on: HUVEC; assay: Inhibition of cell migration in HUVEC assessed as wound closure at 5 nM after 24 hrs by scratch wound healing assay (reference value: 76.3%); format: functional, Homo sapiens; design: scale not given: the % may be the effect or the level left
[3] = Toxicity in ICR mouse allografted with mouse H22 cells assessed as heart morphological changes at 30 mg/kg, iv administered daily for 21 days by hematoxylin and eosin staining based microscopic analysis; format: organism-based; details: in vivo, 504 h, dose 30 mg/kg/day, time 21 day
[4] = tested on: K562; assay: Induction of apoptosis in human K562 cells assessed as early apoptotic cells at 5 nM incubated for 48 hrs by AnnexinV-FITC/propidium iodide staining based flow cytometry analysis (reference value: 1.47%); format: functional
[5] = tested on: K562; assay: Induction of apoptosis in human K562 cells assessed as early apoptotic cells at 20 nM incubated for 48 hrs by AnnexinV-FITC/propidium iodide staining based flow cytometry analysis (reference value: 1.47%); format: functional
[6] = tested on: HUVEC; assay: Anti-angiogenesis activity in HUVEC assessed as inhibition of capillary-like tube formation at 20 nM incubated for 6 hrs by Matrigel-based optical microscopy; format: functional, cell-based; details: Homo sapiens
[7] = species: Sus scrofa; assay: Displacement of [3H]colchicine from porcine brain tubulin at 5 uM incubated for 2 hrs by TopCount scintillation counting method relative to control; format: tissue-based
[8] = tested on: H22; assay: Anti-tumor activity against mouse H22 cells allografted in ICR mice assessed as reduction in tumor weight at 30 mg/kg, iv administered daily for 21 days; format: functional; details: 504 h, time 21 day
[9] = tested on: K562; assay: Induction of cell cycle arrest in human K562 cells assessed as accumulation at S phase at 10 nM incubated for 48 hrs by propidium iodide/RNase staining based flow cytometry (reference value: 53.48%); format: functional
[10] = tested on: K562; assay: Induction of mitochondrial membrane potential depolarization in human K562 cells assessed proportion of cells with collapsed MMP at 20 nM measured after 48 hrs by JC-1 staining based flow cytometry (reference value: 1.57%); format: functional
[11] = tested on: K562; assay: Induction of cell cycle arrest in human K562 cells assessed as accumulation at G1 phase at 5 nM incubated for 48 hrs by propidium iodide/RNase staining based flow cytometry (reference value: 38.83%); format: functional
[12] = Toxicity in ICR mouse allografted with mouse H22 cells assessed as body weight loss at 30 mg/kg, iv administered daily for 21 days; format: organism-based; details: in vivo, 504 h, dose 30 mg/kg/day, time 21 day
[13] = tested on: HUVEC; assay: Inhibition of cell migration in HUVEC assessed as wound closure at 20 nM after 24 hrs by scratch wound healing assay (reference value: 76.3%); format: functional, Homo sapiens; design: scale not given: the % may be the effect or the level left
[14] = tested on: HUVEC; assay: Inhibition of cell migration in HUVEC assessed as decrease in wound closure after 24 hrs by scratch wound healing assay; format: functional, cell-based; details: Homo sapiens, dose 5-20 nM
[15] = against A against n against t against i against p against r against o against l against i against f against e against r against a against t against i against v against e against a against c against t against i against v against i against t against y against a against g against a against i against n against s against t against h against u against m against a against n against H against C against T against - against 8 against c against e against l against l against s against a against s against s against e against s against s against e against d against a against s against r against e against d against u against c against t against i against o against n against i against n against c against e against l against l against v against i against a against b against i against l against i against t against y against m against e against a against s against u against r against e against d against a against f against t against e against r against 7 against 2 against h against r against s against b against y against M against T against T against a against s against s against a against y against; format: functional, tissue-based, Homo sapiens; details: hct-8
[16] = tested on: K562; assay: Induction of cell cycle arrest in human K562 cells assessed as accumulation at G2/M phase at 5 nM incubated for 48 hrs by propidium iodide/RNase staining based flow cytometry (reference value: 7.7%); format: functional
[17] = tested on: HepG2; assay: Antiproliferative against human HepG2 cells assessed as reduction in cell viability measured after 72 hrs by MTT assay; format: functional, cell-based; details: HepG2, 72 h
[18] = Toxicity in ICR mouse allografted with mouse H22 cells assessed as kidney morphological changes at 30 mg/kg, iv administered daily for 21 days by hematoxylin and eosin staining based microscopic analysis; format: organism-based; details: in vivo, 504 h, dose 30 mg/kg/day, time 21 day
[19] = tested on: K562; assay: Induction of apoptosis in human K562 cells assessed as late apoptotic cells at 20 nM incubated for 48 hrs by AnnexinV-FITC/propidium iodide staining based flow cytometry analysis (reference value: 1.78%); format: functional

- IC50 [1]: 20 nM
- inhibition [7]: 79.3%
- IC50 [15]: 21 nM
- IC50 [17]: 19 nM
SMILES: C=C(c1cc(Cl)nc(NC)c1)c1ccc(OC)c(O)c1
- Activity [2]: 67.6%
- Activity [3]: Non-Toxic
- Activity [4]: 6.6%
- Activity [5]: 43.83%
- Activity [6]: Active
- inhibition in vivo at 30 mg/kg/day [8]: 68.7%
- Activity [9]: 50.01%
- Activity [10]: 38.84%
- Activity [11]: 39.94%
- Activity [12]: Non-Toxic
- Activity [13]: 49.2%
- inhibition [14]: Dose-dependent effect
- Activity [16]: 9.4%
- Activity [18]: Non-Toxic
- Activity [19]: 18.43%
